Reference: ChEMBL document CHEMBL1687832, “Polymyxin-resistant clinical isolates of Escherichia coli” (Antimicrob Agents Chemother, 2011)

Columns and labels:
Type in all cases: functional, organism-based
Escherichia coli [1] = assay: Antimicrobial activity against drug-resistant Escherichia coli isolate 1 expressing beta-lactamase CTX-M-15 isolated from urine of patient with history of hypertension, hyperlipidemia by broth microdilution method
Escherichia coli [2] = assay: Antimicrobial activity against drug-resistant Escherichia coli isolate 1 expressing beta-lactamase CTX-M-15 isolated from urine of patient with history of hypertension, hyperlipidemia by Etest
Escherichia coli [3] = assay: (§1) Antimicrobial activity against drug-resistant Escherichia coli isolate 2 expressing beta-lactamase CTX-M-15 isolated from patient past medical history included multiple courses of compound treatment, multiple sclerosis, pulmonary embolism, seizure disorder, tracheostomy for respiratory failure, gastrostomy secondary to dysphagia, congestive heart failure, diabetes mellitus, and peripheral inserted central by Etest
Escherichia coli [4] = assay: as §1, with “microdilution method” for “Etest”
Escherichia coli [5] = assay: Antimicrobial activity against Escherichia coli ATCC 25922 by broth microdilution method
Escherichia coli [6] = assay: Antimicrobial activity against Escherichia coli ATCC 25922 by Etest

Row | Sequence | MBC (Escherichia coli [1]) | MIC (Escherichia coli [1]) | MIC (Escherichia coli [2]) | MIC (Escherichia coli [3]) | MBC (Escherichia coli [4]) | MIC (Escherichia coli [4]) | MBC (Escherichia coli [5]) | MIC (Escherichia coli [5]) | MIC (Escherichia coli [6])
1 | COLISTIN | 16 µg/mL | 16 µg/mL | 16 µg/mL | 16 µg/mL | 32 µg/mL | 32 µg/mL | 1 µg/mL | 1 µg/mL | 1.5 µg/mL
2 | POLYMYXIN B | 32 µg/mL | 16 µg/mL | 16 µg/mL | 24 µg/mL | 32 µg/mL | 16 µg/mL | 0.5 µg/mL | 0.5 µg/mL | 1 µg/mL
